Reference: PubChem BioAssay AID179 (DTP/NCI, 2004)
Active and inactive are the calls of the source.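 How the source made its calls: active means compounds giving half or more protection of infected cells from virus-caused growth loss, again on retest; inactive means the rest.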

Test system: CEM cells HIV-1 protection, formazan growth assay
Assay: NCI AIDS Antiviral Assay
Settings: for IC50: measured here: growth of uninfected CEM cells
Procedure, shortened: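 Protection of CEM cells against HIV-1 was scored from cell growth (soluble formazan) across five concentrations, with parallel uninfected cells. Lack of protection may reflect toxicity.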

Structure (SMILES)	EC50 [µM]	IC50 [µM]	outcome
Cc1ccccc1C1OC1C(=O)c1ccccc1N (configuration not stated)	> 200	46.8	–
CC1CC(c2ccccc2)=Nc2ccccc2S1 (configuration not stated)	> 14.1	> 14.1	–
[N-]=[N+]=N[C@H]1C[C@@H](CO)O[C@H]1n1cnc2c(N)ncnc21	–	–	inactive
CC(=O)OC1C(CNC(=O)N(C)N=O)OC(OC2(CNC(=O)N(C)N=O)OC(CNC(=O)N(C)N=O)C(OC(C)=O)C2OC(C)=O)C(OC(C)=O)C1OC(C)=O (configuration not stated)	> 27.5	> 27.5	–
CCOC(=O)c1c(-c2ccc(Cl)cc2)c(C#N)c(=S)n(C2OC(CO)C(O)C(O)C2O)c1-c1ccccc1 (configuration not stated)	> 200	34.7	–
COc1ccc2c(c1OC)C(=O)C2	> 200	> 200	–
CC12CCC(O)CC1=CCC1C2CCC2(C)C3=NN=CC3CC12 (configuration not stated)	> 200	12	–
O=C1CC2(CCN(Cc3ccccc3)CC2)CC(=O)N1	> 200	> 200	–
O=c1cc(S(=O)(=O)Cc2ccccc2)[nH]c(=O)[nH]1	> 135	> 135	–
Clc1ccc(CSc2ccc3nncc(SCc4ccc(Cl)c(Cl)c4)c3c2)cc1Cl	> 41.7	37.2	–
CC(=O)C(SSC(C(C)=O)C(C)=O)C(C)=O	> 200	8.51	–
CCOC(=O)c1cc2c(nc1N)C(=O)CCCC2	> 200	148	–
CC(=O)OC(OC(C)=O)c1ncccc1C(=O)OC(C)C	> 851	112	–
Cc1ccc2nc(-c3ccc(C(C)(C)C)cc3)oc(=O)c2c1	> 200	23.4	–
CC1=C2C3=C(C)C(=O)C(C)(C)CC[C@@]3(C)[C@]2(C)CCC(C)(C)C1=O	> 75.9	> 75.9	–
CCCc1cc(=O)c2c(C)c3[nH]c4ccc(Cl)cc4c3c(C)c2[nH]1	> 200	11	–
c1ccc(Nc2nn3c(CCCCCCCCc4nnc5sc(Nc6ccccc6)nn45)nnc3s2)cc1	> 200	39.8	–
NC(=O)N/N=C1/CCCC/C1=C\c1ccccc1	–	–	inactive
CCCCCC(O)C1C(=O)OC(C)C(O)/C=C/C=C/C=C/C=C\C=C(\C)C(O)CC(O)CC(O)CC(O)CC(O)CC(O)CC1O (configuration not stated)	> 200	> 200	–
O=c1oc2ncccc2n1Cc1ccc([N+](=O)[O-])cc1	> 200	> 200	–
NCCCCNc1ccc2c(=O)[nH][nH]c(=O)c2c1	–	–	inactive

Structure (SMILES)	EC50 [µM]	IC50 [µM]	outcome
Cc1ccc(S(=O)(=O)C2CC3CC2C2COCC32)cc1 (configuration not stated)	> 75.9	> 75.9	–
COc1cccc(N2C(=O)CC(Sc3ccccc3N)C2=O)c1 (configuration not stated)	> 200	> 200	–
O=C(O)Cc1cc(=O)oc2cc(O)ccc12	> 1120	> 1120	–
O=C1[C@H]2ON(c3ccccc3)C(c3cccc([N+](=O)[O-])c3)[C@H]2C(=O)N1c1ccc(Cc2ccc(N3C(=O)[C@@H]4ON(c5ccccc5)C(c5cccc([N+](=O)[O-])c5)[C@@H]4C3=O)cc2)cc1 (some centres not stated)	> 6.17	> 6.17	–
COC(=O)N/N=C(/c1nc2ccc([N+](=O)[O-])cc2[nH]c1=O)C(O)c1ccc(OC)c(OC)c1 (configuration not stated)	> 110	> 110	–
N=C(N)SC(c1ccccc1)C(O)c1ccccc1 (configuration not stated)	> 200	91.2	–
CCc1c(CN)c(CC)c(CNC2=NCCN2)c(CC)c1CNC1=NCCN1	> 200	> 200	–
COc1ccccc1N/N=c1\c2nc3ccccc3nc1n(-c1ccccc1C)c(=S)n2-c1ccccn1	> 200	> 100	–
CCOC(=O)c1cnc2[nH]c(=O)c3ccccc3n2c1=O	–	–	inactive
CC(N)(CC(O)(C(F)(F)Cl)C(F)(F)Cl)C(=O)O (configuration not stated)	> 200	> 200	–
CN(C)[C@@H]1C(=O)C(C(N)=O)=C(O)[C@@]2(O)C(=O)C3=C(O)c4c(O)ccc(Cl)c4[C@@](C)(O)[C@H]3C[C@@H]12	> 14.1	> 14.1	–
CC#N.CC#N.COC(=O)[C@@H]1CN(C(=O)CCc2ccccc2)C(=O)[N-]1.COC(=O)[C@@H]1CN(C(=O)CCc2ccccc2)C(=O)[N-]1.COC(=O)[C@@H]1CN(C(=O)CCc2ccccc2)C(=O)[N-]1.COC(=O)[C@@H]1CN(C(=O)CCc2ccccc2)C(=O)[N-]1.[Rh+2].[Rh+2]	> 200	4.37	–
O=C1OC(CN2CCN(c3ccccc3)CC2)CN1C(=S)Nc1ccccc1 (configuration not stated)	> 200	115	–
CC(=O)Nc1ccc(/C=C(\NC(=O)c2ccccc2)c2nc3ccc4c(c3[nH]2)C(=O)c2ccccc2C4=O)cc1	–	–	inactive
CC1=NNC(=O)C1C1CC(c2c[nH]c3ccccc23)=NN=C1Cl (configuration not stated)	> 200	93.3	–
CN1C(=Nc2ccccc2)SC1=Nc1ccccc1	–	–	inactive
Cc1ccc(NC(=O)Nc2sc(=S)c3c(c2C#N)CCCC3)c(C)c1	> 58.9	> 58.9	–
COc1cc(Cc2nnc(N)[nH]c2=O)cc(OC)c1OC	> 17.8	> 17.8	–
COC(=O)C(Cc1ccccc1)NC(=O)CCCNC(=O)OCc1ccccc1 (configuration not stated)	> 200	87.1	–
O=c1[nH]nc(-c2ccccc2)n1/N=C/c1ccncc1	> 200	52.5	–
COc1cc(/C=C(\NC(=O)c2ccccc2)c2nc3ccc([N+](=O)[O-])cc3[nH]2)cc(OC)c1OC	–	–	inactive

Structure (SMILES)	EC50 [µM]	IC50 [µM]	outcome
O=C(CS)Nc1cccc(O)c1	> 200	> 200	–
CCCCCC#CCOC(=O)C(=[N+]=[N-])P(=O)(c1ccccc1)c1ccccc1	> 200	95.5	–
O=c1ccc2ccc(O)cc2o1	> 1550	302	–
N=C1SC23CCCN2C(=O)C2(CCCN2C3=O)S1	> 891	174	–
C[Si]1(C)[Si](C)(C)[Si](C)(C)[Si](C)(C)[Si](C)(C)[Si]1(C)C	> 28.8	> 28.8	–
COc1ccc2c(c1)OCC(O)(c1ccccc1)C2O (configuration not stated)	> 200	> 200	–
CC(C)(C)C(=O)/C=C/c1ccc(Oc2ccccc2)cc1	> 25.7	> 25.7	–
COc1nc(NC2OCC(O)C(O)C2O)c(NC2OCC(O)C(O)C2O)c(=O)n1C (configuration not stated)	> 575	> 575	–
COC(=O)c1ccc(/C=C/C2=CC(=O)C=CC2=O)cc1	> 200	2.09	–
CC(O)CNC(=O)C(C)Oc1ccc(OCC2CCCCC2)cc1 (configuration not stated)	> 282	25.1	–
O=C1C[C@H](Sc2ccccc2)C2(OCCO2)[C@@H](Sc2ccccc2)C1	> 2	1.05	–
COc1cc(OC)c(/C=C\c2cc(/C=C/c3c(OC)cc(OC)cc3OC)c3ccccc3[n+]2C)c(OC)c1	> 7.94	0.355	–
Cn1nc(-c2ccccc2)c2c(/C=C/c3ccc(F)cc3)onc2c1=O	> 38.9	> 38.9	–
COc1cccc(N2C(=O)CSC2c2c[nH]c3ccccc23)c1 (configuration not stated)	> 22.4	> 22.4	–
CCCCCCCCCN1CCC(=O)C(C(=O)OC)C1 (configuration not stated)	> 200	4.68	–
CN(C)P(CCP(C)C)N(C)C	> 174	> 174	–
O=C1CC23CCC12CCCC3=O (configuration not stated)	> 550	> 550	–
CCCCCCCCCCCCCCCCN[Si](NCCCCCCCCCCCCCCCC)(NCCCCCCCCCCCCCCCC)NCCCCCCCCCCCCCCCC	> 240	138	–
CC(/C=C1\N=C(c2ccccc2)OC1=O)=C\c1ccccc1	> 200	105	–
COc1cc(/C=N/N=C(\N)NO)cc(OC)c1OC	> 200	105	–
